Laboratory results: patent US6608086B2, “Dihydropyridines and new uses thereof” (Synaptic Pharmaceutical Corporation, priority 1993, dated 2003)
Structures can show the parent of a compound that is named as a salt. Where two headings read alike, the source gives them in different places.

Columns and labels:
α2A receptor = target: T1, α2A receptor (Homo sapiens, UniProt P08913); test: Competition binding, [3H]rauwolscine, human α2A receptor
T1 construct: host or cells: LM(tk-) cells, line L-α2A
T1 sequence (P08913 1-465): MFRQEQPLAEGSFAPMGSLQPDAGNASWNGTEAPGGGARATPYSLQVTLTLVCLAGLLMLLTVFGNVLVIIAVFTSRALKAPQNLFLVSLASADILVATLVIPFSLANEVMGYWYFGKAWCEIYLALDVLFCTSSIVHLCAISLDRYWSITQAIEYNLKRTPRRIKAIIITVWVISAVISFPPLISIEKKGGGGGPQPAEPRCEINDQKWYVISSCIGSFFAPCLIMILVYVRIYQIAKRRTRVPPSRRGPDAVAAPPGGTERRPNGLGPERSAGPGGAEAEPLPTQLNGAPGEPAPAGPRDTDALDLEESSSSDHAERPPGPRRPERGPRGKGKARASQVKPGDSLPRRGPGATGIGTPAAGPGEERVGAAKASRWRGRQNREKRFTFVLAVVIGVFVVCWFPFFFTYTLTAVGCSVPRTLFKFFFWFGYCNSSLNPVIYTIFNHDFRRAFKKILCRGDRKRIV
How it was run: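 Lysates of LM(tk−) cells stably expressing human α2A, α2B or α2C receptors in 25 mM glycylglycine pH 7.6. Equilibrium competition against 0.5 nM [3H]rauwolscine, with 10 μM phentolamine defining nonspecific binding. Bound ligand separated by GF/B filtration.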

[1] = target: T2, α1B Human Adrenergic Receptor (Homo sapiens, UniProt P35368); test: Radioligand binding, [3H]prazosin, cloned human α1B adrenergic receptor
T2 construct: The entire coding region of α1B (1563 bp); expressed in transfected cells
T2 sequence (P35368 1-520): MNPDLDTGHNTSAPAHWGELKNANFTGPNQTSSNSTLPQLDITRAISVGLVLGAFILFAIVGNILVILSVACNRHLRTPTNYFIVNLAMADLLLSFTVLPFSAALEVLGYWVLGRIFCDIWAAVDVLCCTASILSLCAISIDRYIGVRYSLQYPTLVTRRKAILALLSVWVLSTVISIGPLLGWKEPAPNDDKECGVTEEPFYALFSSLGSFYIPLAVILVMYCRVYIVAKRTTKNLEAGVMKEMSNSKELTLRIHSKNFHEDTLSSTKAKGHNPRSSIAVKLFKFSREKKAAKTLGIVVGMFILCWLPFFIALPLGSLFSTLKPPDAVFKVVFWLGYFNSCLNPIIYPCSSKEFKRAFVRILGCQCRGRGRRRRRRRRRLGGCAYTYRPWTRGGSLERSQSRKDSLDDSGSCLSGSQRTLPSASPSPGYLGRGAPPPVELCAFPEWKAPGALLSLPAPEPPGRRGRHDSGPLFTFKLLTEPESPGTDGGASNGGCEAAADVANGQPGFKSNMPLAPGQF
How it was run: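 Membranes from stably transfected LM(tk−) cells, resuspended in 50 mM Tris-HCl, 1 mM MgCl2, 0.1% ascorbic acid, pH 7.5, were incubated with 0.5 nM [3H]prazosin for 20 min at 37° C. Nonspecific binding defined with 10 μM phentolamine; bound ligand separated by GF/B filtration.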

[2] = target: T3, α1C Human Adrenergic Receptor (Homo sapiens, UniProt P35348); test: Radioligand binding, [3H]prazosin, cloned human α1C adrenergic receptor
T3 construct: The entire coding region of α1C (1401 bp); expressed in transfected cells
T3 sequence (P35348 1-466): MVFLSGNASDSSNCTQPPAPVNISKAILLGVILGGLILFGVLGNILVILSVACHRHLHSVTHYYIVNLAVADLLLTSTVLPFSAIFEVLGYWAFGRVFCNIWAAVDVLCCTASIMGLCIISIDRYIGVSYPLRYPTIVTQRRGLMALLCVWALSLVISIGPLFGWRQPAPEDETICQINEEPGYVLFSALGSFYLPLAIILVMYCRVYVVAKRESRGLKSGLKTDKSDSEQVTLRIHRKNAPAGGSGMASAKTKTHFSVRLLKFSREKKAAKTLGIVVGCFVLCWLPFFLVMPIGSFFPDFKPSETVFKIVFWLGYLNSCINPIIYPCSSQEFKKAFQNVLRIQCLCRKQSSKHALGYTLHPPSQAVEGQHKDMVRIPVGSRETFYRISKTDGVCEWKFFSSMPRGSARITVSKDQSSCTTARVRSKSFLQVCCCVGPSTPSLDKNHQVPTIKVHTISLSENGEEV
How it was run: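 LM(tk−) membranes (stable human α1C); [3H]prazosin 0.5 nM; 37° C., 20 min; Tris-HCl 50 mM/MgCl2 1 mM/ascorbate 0.1%, pH 7.5; NSB 10 μM phentolamine; GF/B filtration.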

[3] = [3H]rauwolscine, LM(tk-) cell line L-α2A, SEM and n in lines below, read-out: pKi alpha-2 2a (converted)
[4] = pKi alpha-1 1b, cloned human receptor in LM(tk-) cell membranes, SEM and n in lines below
[5] = pKi alpha-1 1c, cloned human receptor in LM(tk-) cell membranes, SEM and n in lines below
[6] = cloned human receptor in LM(tk-) cell membranes, SEM and n in lines below, read-out: pKi alpha-1 1b (converted)
[7] = cloned human receptor in LM(tk-) cell membranes, SEM and n in lines below, read-out: pKi alpha-1 1c (converted)
[8] = [3H]rauwolscine, human α2A receptor, LM(tk−) cells, read-out: pKi alpha-2 2a (converted)
[9] = pKi alpha-1 1b, cloned human α1B receptor, LM(tk−) cell membranes
[10] = cloned human α1C receptor, LM(tk−) cell membranes, read-out: pKi alpha-1 1c (converted)
[11] = pKi alpha-1 1c, cloned human α1C receptor, LM(tk−) cell membranes
[12] = cloned human α1B receptor, LM(tk−) cell membranes, read-out: pKi alpha-1 1b (converted)

| Compound | Ki (α2A receptor) | Ki [2, 7] | Ki (α2A receptor; [8]) | Ki [1, 9] | Ki [2, 11] | other results |
| --- | --- | --- | --- | --- | --- | --- |
| CC1=C(C(=O)NCCCN2CCC(c3ccccc3)(c3ccccc3)CC2)C(c2ccc([N+](=O)[O-])cc2)C2=C(CCCC2=O)N1 (stereo not drawn) [Example 40, 1,4,5,6,7,8-Hexahydro-2-methyl-4-(4-nitrophenyl)-5-oxo-3-{N-[3-(4,4-diphenylpiperidin-1-yl)propyl]}carboxamidoquinoline] |  |  |  |  |  | Ki (α2A receptor; [3]): 1860 nM; Ki [1, 4]: 275 nM; Ki [2, 5]: 13.8 nM |
| COC(=O)C1=C(C)NC(C)=C(C(=O)NCCN2CCC(c3ccccc3)(c3ccccc3)CC2)C1c1ccc([N+](=O)[O-])cc1 (stereo not drawn) [Example 52, 1,4-Dihydro-3-methoxycarbonyl-2,6-dimethyl-4-(4-nitrophenyl)-5-{N-[2-(4,4-diphenylpiperidin-1-yl)ethyl]}carboxamidopyridine hydrochloride hemihydrate] | 513 nM | 8.71 nM |  |  |  | Ki [1, 6]: 77.6 nM |
| COC(=O)C1=C(C)NC(C)=C(C(=O)NCCCN2CCC(c3ccccc3)(c3ccccc3)CC2)C1c1ccc(C)cc1 (stereo not drawn) [Example 19, 1,4-Dihydro-3-methoxycarbonyl-1,6-dimethyl-4-(4-methylphenyl)-5-(N-(3-(4,4-diphenylpiperidin-1-yl)propyl)carboxamido)pyridine] | 1290 nM | 1.35 nM |  |  |  | Ki [1, 6]: 269 nM |
| CC1=C(C(=O)NCCCN2CCC(c3ccccc3)(c3ccccc3)CC2)C(c2ccc([N+](=O)[O-])cc2)C(C(=O)OCCC#N)=C(C)N1 (stereo not drawn) [Example 160] |  |  | 457 nM | 138 nM |  | Ki [2, 10]: 7.94 nM |
| CNC(=O)C1=C(C)NC(C)=C(C(=O)NCCCN2CCC(O)(c3ccccc3)CC2)C1c1ccc([N+](=O)[O-])cc1 (stereo not drawn) [Example 162, 1,4-Dihydro-3-{N-[3-(4-hydroxy-4-phenylpiperidin-1-yl)propyl]}carboxamido-2,6-dimethyl-5-(N-methyl)carboxamido-4-(4-nitrophenyl)pyridine] |  |  | 631 nM | 257 nM | 11.5 nM |  |
| COc1ccc(C2(c3ccccc3)CCN(CCCNC(=O)C3=C(C)NC(C)=C(C(N)=O)C3c3ccc([N+](=O)[O-])cc3)CC2)cc1 (stereo not drawn) [Example 98, 5-Carboxamido-1,4-dihydro-3-{N-[3-(4-(4-methoxyphenyl)-4-phenylpiperidin-1-yl)propyl]}carboxamido-2,6-dimethyl-4-(4-nitrophenyl)pyridine hydrochloride] |  |  | 355 nM | 302 nM | 4.79 nM |  |
| COC(=O)C1=C(C)N(C)C(C)=C(C(=O)OCCCN2CCC(c3ccccc3)(c3ccccc3)CC2)C1c1ccc([N+](=O)[O-])cc1 (stereo not drawn) [Example 92, 1,4-Dihydro-5-methoxycarbonyl-1,2,6-trimethyl-4-(4-nitrophenyl)-3-[3-(4,4-diphenylpiperidin-1-yl)propoxy]carbonylpyridine hydrochloride hydrate] | 3160 nM |  |  |  |  | Ki [1, 12]: 58.9 nM; Ki [2, 10]: 3.09 nM |
| CCC1=C(C(=O)NCCCN2CCC(c3ccccc3)(c3ccccc3)CC2)C(c2cccc(OC)c2)C(C(=O)NCCCN2CCC(c3ccccc3)(c3ccccc3)CC2)=C(CC)N1 [Example 112, 2,6-Diethyl-1,4-dihydro-4-(3-methoxyphenyl)-3,5-bis(N-(3-(4,4-diphenylpiperidin-1-yl)propyl)carboxamido)-pyridine] |  |  | 257 nM | 23.4 nM | 24.5 nM |  |
| CCC1=C(C(=O)NCCCN2CCC(c3ccccc3)(c3ccccc3)CC2)C(c2ccc([N+](=O)[O-])cc2)C(C(N)=O)=C(C)N1 (stereo not drawn) [Example 81, 5-carboxamido-2-ethyl-1,4-dihydro-6-methyl-4-(4-nitro)phenyl-3-(N-(3-(4,4-diphenylpiperidin-1-yl)propyl))carboxamidopyridine hydrochloride] |  |  |  |  |  | Ki (α2A receptor; [3]): 178 nM; Ki [1, 4]: 240 nM; Ki [2, 5]: 1.91 nM |
| CC1=C(C(N)=O)C(c2ccc(S(C)(=O)=O)cc2)C(C(=O)NCCCN2CCC(c3ccccc3)(c3ccccc3)CC2)=C(C)N1 (stereo not drawn) [Example 115, 5-Carboxamido-1,4-4-dihydro-4-(4-methanesufonylphenyl)-2,6-dimethyl-3-(N-(3-(4,4-diphenylpiperidin-1-yl)propyl)carboxamido)-pyridine] |  |  | 3980 nM | 1450 nM | 58.9 nM |  |
| COc1cccc(C2C(C(N)=O)=C(C)NC(C)=C2C(=O)NCCCN2CCC(c3ccccc3)(c3ccccc3)CC2)c1 (stereo not drawn) [Example 117, 5-Carboxamido-1,4-dihydro-4-(3-Methoxyphenyl)-2,6-dimethyl-3-(N-(3-(4,4-diphenylpiperidin-1-yl)propyl)carboxamido)-pyridine] |  |  | 955 nM | 562 nM | 27.5 nM |  |
| CCC1=C(C(N)=O)C(c2ccc([N+](=O)[O-])cc2)C(C(=O)NCCCN2CCN(c3ccccc3OC)CC2)=C(CC)N1 (stereo not drawn) [Example 125, 5-Carboxamido-2,6-diethyl-1,4-dihydro-3-(N-{3-[4-(2-methoxyphenyl)piperazin-1-yl]propyl})carboxamido-4-(4-nitrophenyl)pyridine] |  |  | 26.9 nM |  |  | Ki [1, 12]: 129 nM; Ki [2, 10]: 1.15 nM |
| COC(=O)C1=C(C)NC(C)=C(C(=O)NCCCN2CCC(c3ccccc3)(c3ccccc3)CC2)C1c1ccncc1 (stereo not drawn) [Example 5, 1,4-Dihydro-5-methoxycarbonyl-2,6-dimethyl-3-(N-(3-(4,4-diphenylpiperidin-1-yl)propyl)carboxamido)-4-(4-pyridyl)pyridine] | 2240 nM | 11.2 nM |  |  |  | Ki [1, 6]: 832 nM |
| CCC1=C(C(=O)NCCCN2CCC(c3ccccc3)(c3ccccc3)CC2)C(c2ccc([N+](=O)[O-])cc2)C(C(=O)OCc2ccccc2)=C(C)N1 (stereo not drawn) [Example 4, 5-Benzyloxycarbonyl-2-ethyl-1,4-dihydro-6-methyl-4-(4-nitrophenyl)-3-(N-(3-(4,4-diphenylpiperidin-1-yl)propyl)carboxamido) pyridine, Hydrochloride Salt, Hydrate] |  |  |  |  |  | Ki (α2A receptor; [3]): 550 nM; Ki [1, 4]: 129 nM; Ki [2, 5]: 67.6 nM |
| COC(=O)C1=C(C)NC(c2ccccc2)=C(C(=O)NCCCN2CCC(c3ccccc3)(c3ccccc3)CC2)C1c1ccc([N+](=O)[O-])cc1 (stereo not drawn) [Example 78, 1,4-Dihydro-5-methoxycarbonyl-6-methyl-4-(4-nitro)phenyl-2-phenyl-3-(N-(3-(4,4-diphenylpiperidin-1-yl)propyl))carboxamidopyridine hydrochloride hydrate] | 724 nM | 4.27 nM |  |  |  | Ki [1, 6]: 110 nM |
| COC(=O)C1=C(C)NC(C)=C(C(=O)NCCCN2CCC(c3ccccc3)(c3ccccc3)CC2)C1c1ccc([N+](=O)[O-])c(C)c1 (stereo not drawn) [Example 28] |  | 9.55 nM |  |  |  | Ki (α2A receptor; [3]): 2290 nM; Ki [1, 4]: 240 nM |
